Assay results: PubChem BioAssay (NCI)
Several values for one entry are separate records, joined by “and”; a condition that tells them apart may be missing. Identical values can stand only once.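 Step 1: Grow cells in 96-well plates. Step 2: Expose to compound for 48 hours at 5 concentrations. Step 3: Interpolate endpoints linearly; if unreached, use highest concentration. GI50: concentration for 50% inhibition of growth. TGI is the concentration that stops growth completely.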

Columns and labels:
Experiment in all cases: inhibition of tumour cell growth, NCI panel, 48 h
OVCAR-3 ovarian = system: OVCAR-3 ovarian
UACC-257 melanoma = system: UACC-257 melanoma
HS 578T breast = system: HS 578T breast
SNB-19 CNS = system: SNB-19 CNS
HOP-92 NSCLC = system: HOP-92 NSCLC
BT-549 breast = system: BT-549 breast
MDA-MB-231 breast = system: MDA-MB-231 breast
786-0 renal = system: 786-0 renal
OVCAR-5 ovarian = system: OVCAR-5 ovarian
ACHN renal = system: ACHN renal

SMILES | GI50 (OVCAR-3 ovarian) | TGI (OVCAR-3 ovarian) | GI50 (UACC-257 melanoma) | TGI (UACC-257 melanoma) | GI50 (HS 578T breast) | TGI (HS 578T breast) | GI50 (SNB-19 CNS) | TGI (SNB-19 CNS) | GI50 (HOP-92 NSCLC) | TGI (HOP-92 NSCLC) | GI50 (BT-549 breast) | TGI (BT-549 breast) | GI50 (MDA-MB-231 breast) | TGI (MDA-MB-231 breast) | GI50 (786-0 renal) | TGI (786-0 renal) | GI50 (OVCAR-5 ovarian) | TGI (OVCAR-5 ovarian) | GI50 (ACHN renal) | TGI (ACHN renal)
O=C(CO[N+](=O)[O-])Nc1ccc(C(=O)/C=C/c2ccc(Cl)cc2)cc1 | 2.22 µM | 6.55 µM | 4.33 µM | 15.9 µM | 2.85 µM | 14.2 µM | 4.11 µM | 18.4 µM | 2.95 µM | 15.2 µM | 1.86 µM | 5 µM | 5.39 µM | 21.2 µM | 11.6 µM | 48 µM | 14.8 µM | 36 µM | 3.3 µM | 17 µM
Nc1ccc(C2=NN(c3ccccc3)C(c3ccc(Cl)cc3)C2)cc1 (centres undefined) | 2.59 µM | 6.88 µM | 3.13 µM | 11.2 µM | 5.7 µM | 50.5 µM | 2.9 µM | 14.1 µM | 2.61 µM | 17.3 µM | 2.21 µM | 5.32 µM | 2.38 µM | 6.98 µM | 2.03 µM | 4.22 µM | 10.6 µM | 24.8 µM | 1.8 µM | 3.57 µM
Cc1nc(SCC(=O)Nc2nc(-c3ccc(Cl)cc3)cs2)n(Nc2ccccc2)c1C | 3 µM | 12.1 µM | 3.07 µM | 17 µM | 3.42 µM | 21.6 µM | 9.41 µM | 24.6 µM | 1.61 µM | 6.89 µM | 7.02 µM | 20.9 µM | 3.01 µM | 15.2 µM | 3.6 µM | 13.7 µM | 2.65 µM | 13.5 µM | 3.67 µM | 14.1 µM
FC(F)c1nc2ccccc2n1-c1nc(N2CCOCC2)nc(N2CCOCC2)n1 | 0.204 µM and 0.281 µM | 3.44 µM and 5.67 µM | 0.264 µM and 0.25 µM | 3.09 µM and 3.64 µM | 0.143 µM and 0.0684 µM | 0.995 µM and 0.773 µM | 1.28 µM and 1.74 µM | > 100 µM | 0.0486 µM and 0.0548 µM | 0.382 µM and 0.551 µM | 0.0992 µM and 0.145 µM | 1.26 µM and 3.97 µM | 0.448 µM and 2.13 µM |  | 0.146 µM and 0.223 µM | 1.43 µM and 2.94 µM | 0.329 µM and 0.447 µM | > 100 µM | 0.299 µM and 0.397 µM | > 100 µM
CCOC(=O)c1sc(-c2ccc(OS(=O)(=O)c3ccc(Br)s3)c(C=O)c2)nc1C | 2.48 µM | 6.71 µM | 18.6 µM | 64.7 µM | 10.6 µM | 36.3 µM | 3.17 µM | 12 µM | 2.08 µM | 6.87 µM | 2.51 µM | 6.57 µM | 2.75 µM | 10.1 µM | 2.75 µM | 8.16 µM | 10 µM | 26.3 µM | 3.02 µM | 9.05 µM
S=C(Nc1ccc(Br)cc1)Nc1ccc(Br)cc1 | 3.58 µM | > 100 µM | 7.86 µM | > 100 µM | 85 µM | > 100 µM | 17.2 µM | > 100 µM | 2.72 µM | 9.13 µM | 44.2 µM | > 100 µM | 25.5 µM | > 100 µM | 38.5 µM | > 100 µM | > 100 µM | > 100 µM | 4.25 µM | > 100 µM
